{"source": "patent US10441588B2", "about": "“Methods and compositions for treating bacterial infection” (Curators of the University of Missouri, priority 2012, dated 2019)", "key": {"[1]": {"test_system": "S. aureus biofilm", "experiment": "S. aureus biofilm inhibition, optical density, test/control", "type": "cell-based, Staphylococcus aureus", "conditions": "Staphylococcus aureus, growth of biofilm test/control by optical density"}, "[2]": {"test_system": "E. coli flagellin (fliC)", "experiment": "microbe, parasite or virus in culture", "type": "cell-based"}, "[3]": {"test_system": "S. aureus clinical strain NRS234", "experiment": "S. aureus pneumonia model", "type": "in vivo, Balb/C mice", "protocol": "S. aureus is one of the major causative agents of pneumonia. CCG-211790 was tested in a pneumonia model. Balb/C mice were intra-nasally infected with 10^7 CFU S. aureus clinical strain NRS234 and treated with either 0.15 μmol CCG-211790 or DMSO two hours after infection. The mice were then treated with CCG-211790 or DMSO (control) twice a day after the day of infection for three days. […] Mice were also infected with higher dose of bacteria at 10^9 CFU treated intraperitoneally (ip) with either 0.15 μmol CCG-211790, vancomycin, combination of CCG-21790 and vancomycin, or DMSO two hours after infection. The mice were then treated twice a day after the day of infection for three days."}, "[4]": {"test_system": "MRSA", "experiment": "MRSA skin punch wound infection in DIO mice", "type": "in vivo, diet induced obesity (DIO) mice", "conditions": "10^8 CFU MRSA; 60 μg/wound in ointment (6% silica in cod liver oil) vs ointment alone", "excerpt": "In this example, in vivo and in vitro efficacy for wound infection (against MRSA and P. aeruginosa) was investigated. Diabetic ulcer lesion is a major complication of people with diabetes and represents a form of chronic wounds. Bacteria can form biofilm in the lesions, which is recalcitrant to treatment. Therefore, diet induced obesity (DIO) mice were used as a model of obesity and insulin resistance diabetes to test the in vivo efficacy of CCG-211790 to fight wound infections.\n(§1) A skin punch wound was introduced to the DIO mice and infected with 10^8 CFU MRSA. Mice were then treated locally at the wound site with ointment containing CCG-211790 (60 μg/wound) in an ointment (6% silica in cod liver oil) or ointment alone. […] Furthermore, CCG-211790 protected mouse fibroblast cells (CCL-1) from MRSA cytoxicity in vitro (FIG. 13B)."}, "[5]": {"test_system": "mouse fibroblast cells (CCL-1)", "experiment": "MRSA cytotoxicity on mouse fibroblast cells in vitro", "type": "cell-based", "protocol": "as §1"}, "[6]": {"test_system": "P. aeruginosa", "experiment": "P. aeruginosa wound infection in DIO mice", "type": "in vivo"}, "[7]": {"test_system": "E. coli adhesion to human epithelial cells (Caco2)", "experiment": "E. coli adhesion to Caco2 cells", "type": "cell-based", "conditions": "Caco-2", "protocol": "FIGS. 15A and 15B show CCG-211790 (NV001) inhibited E. coli virulence. FIG. 15A is a western blot of fliC expression at different concentrations of CCG-211790 (NV001).\nCCG-211790 (NV001) and a number of structural analogs inhibited the expression of the flagellin gene (fliC) (FIG. 15A) and also the bacterial adhesion to human epithelial cells (Caco2) (FIG. 15B). As summarized in Table 5, the effect of compounds on E. coli flagellin expression was also tested by incubating compounds (5 and 25 μM) with E. coli for 6 hours, flagellin expression in supernatant (IVG-00601, 607) or cell pellet (IVG-00608-006014) was examined by western and quantified."}, "[8]": {"test_system": "E. coli STEC O157:H7", "type": "in vivo, mice"}, "[9]": {"test_system": "A. baumannii (AYE) biofilm", "experiment": "A. baumannii open wound infection mouse model", "type": "in vivo, mice", "conditions": "topical, 6 mg/ml in PEG, 100 μl daily", "protocol": "A topical formulation (6 mg/ml in Polyehylene glycol; PEG) was tested for its in vivo efficacy on the open wound infection mouse model."}, "[10]": {"test_system": "MRSA", "experiment": "MRSA growth"}, "[11]": {"test_system": "P. aeruginosa", "experiment": "Ciprofloxacin potency against P. aeruginosa"}, "[12]": {"test_system": "Acinetobacter baumannii", "experiment": "Vancomycin potency against Acinetobacter baumannii"}, "[13]": {"test_system": "MRSA", "experiment": "MRSA response to antibiotics in presence of compound", "conditions": "50 μM CCG-211790"}}, "data": [{"smiles": "COc1ccc2c(c1)-c1nc(SCC(F)(F)F)n(C)c(=O)c1C(C)(C)C2", "note": "[CCG-211790, 9-methoxy-3,5,5-trimethyl-2-((2,2,2-trifluoroethyl)thio)-5,6-dihydrobenzo[h]quinazolin-4(3H)-one]", "values": [{"measurement": "activity at 5 µM", "setting": "[1]; 5 μM, read-out: S. aureus Biofilm Inhibition 5 μM vs. (−) Control", "result": 38.1, "unit": "%"}, {"measurement": "activity at 50 µM", "setting": "[1]; 50 μM, read-out: S. aureus Biofilm Inhibition 50 μM vs. (−) Control", "result": 32.6, "unit": "%"}, {"measurement": "activity at 5 µM", "setting": "[2]; Escherichia coli, 6 h, read-out: E. coli flagellin production, Relative Level vs. Control, 5 μM", "result": 56.9, "unit": "%"}, {"measurement": "activity at 25 µM", "setting": "[2]; Escherichia coli, 6 h, read-out: E. coli flagellin production, Relative Level vs. Control, 25 μM", "result": 15.4, "unit": "%"}, {"measurement": "expression of the flagellin gene (fliC)", "setting": "[2]; western blot, different concentrations", "result": "inhibited"}, {"measurement": "bacterial counts in both lungs and spleens", "setting": "[3]; 10^7 CFU intranasal, 0.15 μmol, twice a day for three days, vs DMSO", "result": "Significant reduction"}, {"measurement": "protection of hosts (survival), monotherapy", "setting": "[3]; 10^9 CFU, 0.15 μmol ip", "result": "Significant protection"}, {"measurement": "survival rate, combination with vancomycin", "setting": "[3]; 10^9 CFU, combination of vancomycin and CCG-211790", "result": "improved the survival rate"}, {"measurement": "skin lesion size", "setting": "[4]", "result": "reduce the skin lesion size"}, {"measurement": "protection of CCL-1 cells from MRSA cytoxicity", "setting": "[5]", "result": "protected"}, {"measurement": "survival", "setting": "[6]; female DIO mice, 10^8 CFU, 12 mg/kg CCG-211790 oral with 10 mg/kg vancomycin ip", "result": 100, "unit": "%"}, {"measurement": "skin lesion size", "setting": "[6]; male and female DIO mice, with vancomycin vs only vancomycin", "result": "reduced"}, {"measurement": "bacterial adhesion to human epithelial cells (Caco2)", "setting": "[7]", "result": "inhibited"}, {"measurement": "survival", "setting": "[8]; […], 10 mg/kg ip twice a day", "result": 55.6, "unit": "%"}, {"measurement": "infection symptoms and survival", "setting": "[8]; mouse, in vivo", "result": "improved infection symptoms and survival"}, {"measurement": "A. baumannii infected wound lesion size", "setting": "[9]", "result": "reduced"}, {"measurement": "effect on bacteria growth", "setting": "[10]", "result": "little to no effect"}, {"measurement": "ciprofloxacin potency against P. aeruginosa", "setting": "[11]", "result": "enhanced"}, {"measurement": "potency of vancomycin against Acinetobacter baumannii", "setting": "[12]", "result": "enhanced the potency"}, {"measurement": "antibiotic potency against MRSA (amoxicillin, vancomycin, clindamycin, tetracycline, erythromycin)", "setting": "[13]", "result": "enhanced the antibiotic potency"}]}]}
